For test [1], the system named is HLA-DRB1 in WM793 and 1205Lu cells. The experiment in a line: Cell surface fucosylation and HLA-DRB1 (flow cytometry), HLA-DRB1 mRNA (qRT-PCR) and protein (IB) in melanoma cells. The format is cell-based, human. The following applies: 250 μM, 72 h. The text has this: FIGS. 18A-18F show N-linked fucosylation of HLA-DRB1 at N48 regulates its cell surface localization and is required for tumor suppression and increased TIL abundance. (a) (upper) Amino acid sequence alignments showing conservation of predicted N- and O-linked fucosylation sites in human HLA-DRB1 (N48 and T129) and mouse H2EB1 (N46 and T147). Structural modeling of the HLA-DRB1:HLA-DM (lower left) and CD4:HLA-DRB1:TCR (lower right) complexes. Potential glycosylation sites, N48 and T129, of HLA-DR1 beta chain are shown as sticks. CD4 (cyan), HLA-DRB1 (yellow), antigen peptide (magenta), and TCR (green)(lower right). (b) HLA-DRB1 peptide fragment identified by nano-LC/MS to be fucosylated on N48, with predicted HexNAc(4)Hex(3)Fuc(1) glycan structure shown above. (c) Lectin pull down (LPD) and IB analyses of EV and V5-tagged wild-type HLA-DRB1 (WT)-, HLA-DRB1 N48G (N48G)-, and HLA-DRB1 T129A (T129A)-expressing WM793 cells. (d) DMSO- or fucosyltransferase inhibitor (FUTi)-treated WM793 cells immunofluorescently stained for endogenous HLA-DRB1, KDEL (ER marker), and DAPI (20× magnification). (e) Flow cytometric analysis for relative cell surface fucosylation (upper) and cell surface HLA-DRB1 (upper middle), qRT-PCR analysis of relative HLA-DRB1 mRNA levels (lower middle), and IB analysis of HLA-DRB1 protein levels (lower) in WM793 and 1205Lu cells treated with DMSO (D), 250 μM FUTi (i), or 250 μM L-fuc (LF). (f) Volumetric growth curves for shNT (non-targeting shRNA)+EV (control SW1 tumors)(upper left) or shEB1 tumors reconstituted with EV (upper right), EB1 WT (lower left), or EB1 N46G (lower right) in C3H/HeN mice. Control (grey) or L-fucose supplemented water (red, 100 mM; ▾=initiated supplementation) was provided ad libitum. The tumor growth curves are means±SEM from ≥7 mice per group. *=p<0.05.
FIGS. 19A and 19B show nano-LC/MS spectral identification of fucosylated HLA-DRB1 peptide; and the effects of modulating fucosylation on HLA-DRB1 localization, total protein, and mRNA levels (a) nano-LC/MS/MS spectra showing fucosylated HLA-DRB1 peptide (arrow). (b) Flow cytometric analysis for relative cell surface fucosylation (upper) and cell surface HLA-DRB1 levels (upper middle), qRT-PCR analysis of relative HLA-DRB1 mRNA levels (lower middle), and IB analysis of HLA-DRB1 protein levels (lower) in indicated melanoma cell lines treated with DMSO (D), 250 μM FUTi (i), or 250 μM L-fuc (LF). *=p<0.05.
HLA-DRB1, and PD-L1: Indicated cells were treated for 72 h with DMSO, 250 μM fucosyltransferase inhibitor (FUTi) (Millipore Sigma (St. Louis, MO)), or 250 μM of L-fucose (Biosynth (Oak Terrace, IL)). After 72 h, cells were stained with 0.1 μM PKH26 (Millipore Sigma (St. Louis, MO)) prior to fixation in 4% formaldehyde solution. The cells were stained with anti-HLA-DRB1 and fluorescein AAL, or anti-human or anti-mouse PD-L1 overnight. The following day the cells were washed 3 times prior to adding AlexaFluor 594 donkey anti-rabbit. Cells were washed 3 times and then subject to flow cytometric analyses using a FACSCalibur (BD Biosciences (San Jose, CA)). Samples were analyzed using FlowJo analysis software (BD Biosciences (San Jose, CA)). Median values of DRB1 and AAL were normalized to PKH26 values and statistical analysis was performed using GraphPad Prism.
Cells were lysed on ice in RIPA lysis buffer (25 mM Tris-HCl pH 7.6, 150 mM NaCl, 5 mM EDTA, 1% NP-40 or 1% Triton X-100, 1% sodium deoxycholate, 0.1% SDS in diH20+protease and phosphatase inhibitors (ThermoFisher Scientific (Waltham, MA)), briefly sonicated, pelleted, and the resulting lysates were normalized by protein concentration using DC assay (BioRad Laboratories, (Hercules, CA)). The indicated samples were subjected to (12%) SDS-PAGE and immunoblot analysis using the indicated antibodies. Immunoblot imaging and analysis was performed using either an Odyssey FC scanner and ImageStudio (LiCor Biosciences, Lincoln, NE) or film. […]
Background: Flow cytometry measures light scatter and fluorescence of single cells or particles in a stream.

A further test concerns mouse melanoma tumors. The experiment in a line: Earlier mouse melanoma model with dietary fucose supplementation or FUK overexpression (tumor growth, CD45 and DX5 staining). The format is in vivo. The protocol: To determine whether dietary or genetic modulation of fucosylation affects tumor growth and metastasis, we previously studied a mouse melanoma model in which tumor fucosylation was increased either by dietary supplementation (FIG. 2A) with 100 mM fucose or by overexpressing mouse FUK (FIG. 2B). […] To determine whether fucosylation affects tumor infiltration by immune cells, Immunofluorescent staining analysis of CD45 (general leukocyte marker, red) and DAPI (blue) was performed (FIG. 2C). To determine whether fucosylation affects tumor infiltration by NK cells, immunofluorescent staining analysis for DX5 (an NK cell marker, red) and DAPI (blue) was performed (FIG. 2D). Both NK cells and CD4+ T cells were elevated in samples from fucose supplemented mice.

As to `CC(=O)OC1O[C@@H](C)[C@@H](OC(C)=O)[C@@H](OC(C)=O)[C@@H]1F` (stereo partly drawn) [FUTi, 2F-peracteyl-fucose, reference compound], in test [1], the “HLA-DRB1 mRNA and protein levels” value was “remained unchanged”; the “cell surface HLA-DRB1” value was “decreased”; the cell surface fucosylation entry is on record as “decreased”.
Consider `C[C@H](O)[C@@H](O)[C@@H](O)[C@H](O)C=O` [L-fucose], for which, in test [1], the “HLA-DRB1 mRNA and protein levels” value is “remained unchanged”; the “cell surface HLA-DRB1” value is given as “increased”; the cell surface fucosylation result was “increased”. The “block of tumor growth and metastasis” value with mouse melanoma tumors (dietary L-fucose supplementation, mouse models) is more than 50%. The tumor suppression entry in the test on mouse melanoma tumors (dietary supplementation with 100 mM fucose (FIG. 2A)) is “increased tumor suppression”. Moreover, in the test on mouse melanoma tumors (fucose supplemented mice (FIG. 2C, 2D)), the “NK cells and CD4+ T cells in tumor samples” value is “elevated”.

These data come from patent publication US20240197761A1, “FUCOSYLATION AND IMMUNE MODULATION IN CANCER” (H. LEE MOFFITT CANCER CENTER AND RESEARCH INSTITUTE, INC., priority 2021, published 2024).
